Laboratory results: patent publication US20260284005A1, “INHIBITING MITOGEN-ACTIVATED PROTEIN (MAP)/ERK KINASE (MEK)1 AND MEK2 AND RELATED METHODS OF TREATMENT” (priority 2023, published 2026)
Like-named read-outs stand apart in the source and are kept apart here.

Tests used:
CORL23 cells = assay: 3D-TGA; assay type: cell-based; conditions: Homo sapiens, COR-L23, CORL23, LUN, KRAS G12V, ALK R317T
Procedure: (§1) Cells were seeded in 3D cultures in a black-walled, clear-bottom, non-tissue culture treated, 384-well plate (3000 cells per well) using a 1:1 mixture of BME and a custom media and grown in a humidified incubator with 5% CO2 and 5% O2, which approximates capillary levels for each gas, at 37° C. […] Cells were assessed for cell proliferation using EdU cell proliferation staining. […] Cells were permeabilized with 30 μL of filtered 0.5% Triton X-100 in PBS for 20 minutes at room temperature. Samples were washed twice gently with PBS. Cells were stained utilizing click-iT chemistry by adding 20 μL of staining cocktail containing 2 mM copper sulfate, 8 μM sulfo-Cy5-azide, and 20 mg/ml ascorbic acid in PBS and incubated 30-60 minutes at room temperature in dark. […] Plates were imaged with the Molecular Devices Pico ImageXpress. Images were segmented and percentage of cells with EdU incorporation was quantified to calculate antiproliferative effects of the drugs.
(§2) Five (5)-ethynyl-2′-deoxyuridine (EdU) data was represented as percentage EdU positive cells quantified by high content imaging from the Molecular Devices ImageXpress® Pico.

NCI-H2087 cells = assay: 3D-TGA; assay type: cell-based; conditions: Homo sapiens, NCI-H2087, LUN, NRAS Q61K, ALK S553A
Procedure: as §1, §2

SW900 cells = assay: 3D-TGA; assay type: cell-based; conditions: Homo sapiens, SW900, LUN, KRAS G12V, ALK G103R
Procedure: as §1, §2

MIA PaCa-2 cells = assay: 3D-TGA; assay type: cell-based, human; conditions: KRAS G12C
AsPC-1 cells = assay: 3D-TGA; assay type: cell-based, human; conditions: Homo sapiens, ASPC1; AsPC-1, PAN, KRAS G12D; read-out: IC50 in 3D-TGA, agent alone
Procedure: as §1, §2

CFPAC-1 cells = assay: 3D-TGA; assay type: cell-based, human; conditions: CFPAC-1, PAN, KRAS G12V, read-out: IC50 in 3D-TGA, agent alone
Procedure: as §1, §2

Capan-1 cells = assay: 3D-TGA; assay type: cell-based, human; conditions: Capan-1, PAN, KRAS G12V, read-out: IC50 in 3D-TGA, agent alone
Procedure: as §1, §2

Capan-2 cells = assay: 3D-TGA; assay type: cell-based, human; conditions: Capan-2, PAN, KRAS G12V, read-out: IC50 in 3D-TGA, agent alone
Procedure: as §1, §2

HPAC cells = assay: 3D-TGA; assay type: cell-based, human; conditions: PAN, KRAS G12D, read-out: IC50 in 3D-TGA, agent alone
Procedure: as §1, §2

HPAF-II cells = assay: 3D-TGA; assay type: cell-based, human; conditions: PAN, KRAS G12D, read-out: IC50 in 3D-TGA, agent alone
Procedure: as §1, §2

PANC-1 cells = assay: 3D-TGA; assay type: cell-based, human; conditions: PANC-1, PAN, KRAS G12D, read-out: IC50 in 3D-TGA, agent alone
Procedure: as §1, §2

PSN-1 cells = assay: 3D-TGA; assay type: cell-based, human; conditions: PSN-1, PAN, KRAS G12R, read-out: IC50 in 3D-TGA, agent alone
Procedure: as §1, §2

Panc 10.05 cells = assay: 3D-TGA; assay type: cell-based, human; conditions: Panc 10.05, PAN, KRAS G12D, read-out: IC50 in 3D-TGA, agent alone
Procedure: as §1, §2

PA-TU-8988S cells = assay: 3D-TGA; assay type: cell-based; conditions: Homo sapiens, PaTu 8988s, PAN, KRAS G12V, read-out: IC50 in 3D-TGA, agent alone
Procedure: as §1, §2

Panc 03.27 cells = assay: 3D-TGA; assay type: cell-based; conditions: Homo sapiens, PANC-03-27; Panc 03.27, PAN, KRAS G12V; read-out: IC50 in 3D-TGA, agent alone
Procedure: as §1, §2

CL-40 cells = assay: 3D-TGA; assay type: cell-based, human; conditions: read-out: IC50 in 3D-TGA, agent alone
Procedure: as §1, §2

HT-29 cells = assay: 3D-TGA; assay type: cell-based, human
Procedure: as §1, §2

LS1034 cells = assay: 3D-TGA; assay type: cell-based, human; conditions: LS1034, COL, KRAS A146T, read-out: IC50 in 3D-TGA, agent alone
Procedure: as §1, §2

RCM-1 cells = assay: 3D-TGA; assay type: cell-based, human
Procedure: as §1, §2

SNU-1197 cells = assay: 3D-TGA; assay type: cell-based, human; conditions: read-out: IC50 in 3D-TGA, agent alone
Procedure: as §1, §2

SW626 cells = assay: 3D-TGA; assay type: cell-based, human
Procedure: as §1, §2

pancreatic cancer = conditions: Phase III MPACT, 1st Line; cited from earlier work
NCI-H508 cells = assay: 3D-TGA; assay type: cell-based; conditions: Homo sapiens, read-out: IC50 in 3D-TGA Osimertinib; NCI-H508, COL, BRAF G596R; agent alone
SK-CO-1 cells = assay: 3D-TGA; assay type: cell-based; conditions: Homo sapiens, read-out: IC50 in 3D-TGA Osimertinib; SK-CO-1, COL, KRAS G12V; agent alone
LS411N cells = assay: 3D-TGA; assay type: cell-based; conditions: Homo sapiens, LS-411N, read-out: IC50 in 3D-TGA Osimertinib; LS411N, COL, BRAF V600E; agent alone
NCI-H358 cells = assay: 3D-TGA; assay type: cell-based, human; conditions: NCI-H358, LUN, KRAS G12C
NCI-H1792 cells = assay: 3D-TGA; assay type: cell-based, human; conditions: Homo sapiens, read-out: IC50 in 3D-TGA Osimertinib; NCI-H1792, LUN, KRAS G12C; agent alone
NCI-H820 cells = assay: 3D-TGA; assay type: cell-based; conditions: Homo sapiens, read-out: IC50 in 3D-TGA Osimertinib; NCI-H820, LUN, EGFR T790M; agent alone
NCI-H1975 cells = assay: 3D-TGA; assay type: cell-based; conditions: Homo sapiens, read-out: IC50 in 3D-TGA Osimertinib; NCI-H1975, LUN, EGFR L858R; agent alone
NCI-H1650 cells = assay: 3D-TGA; assay type: cell-based; conditions: Homo sapiens, NCI-H1650, read-out: IC50 in 3D-TGA Osimertinib
NCI-H2172 cells = assay: 3D-TGA; assay type: cell-based; conditions: Homo sapiens, read-out: IC50 in 3D-TGA Osimertinib; NCI-H2172, LUN, EGFR L858R; agent alone
HCC827 cells = assay: cells; assay type: cell-based; conditions: Homo sapiens, HCC827, read-out: IC50 in 3D-TGA Osimertinib
A549 cells = assay: 3D-TGA; assay type: cell-based, human; conditions: A549, LUN, KRAS G12S; read-out: IC50 in 3D-TGA, agent alone
Procedure: as §1, §2

Calu-6 cells = assay: 3D-TGA; assay type: cell-based, human; conditions: Calu-6, LUN, KRAS Q61K; read-out: IC50 in 3D-TGA, agent alone
Procedure: as §1, §2

PA-TU-8988T cells = assay: 3D-TGA; assay type: cell-based, human; conditions: PAN, KRAS G12V, read-out: IC50 in 3D-TGA, agent alone
Procedure: as §1, §2

[1] = read-out: IC50 in 3D-TGA Alectinib
[2] = agent alone, read-out: IC50 in 3D-TGA Crizotinib
[3] = MIA-PaCa2, PAN, read-out: IC50 in 3D-TGA, agent alone
[4] = HT-29, COL, BRAF V600E, read-out: IC50 in 3D-TGA, agent alone
[5] = RCM-1, COL, KRAS G12V, read-out: IC50 in 3D-TGA, agent alone
[6] = SW626, COL, KRAS G12V, read-out: IC50 in 3D-TGA, agent alone

Structure (SMILES): CCc1cc2c(cc1N1CCC(N3CCOCC3)CC1)C(C)(C)c1[nH]c3cc(C#N)ccc3c1C2=O [Alectinib, alectinib]
- IC50 (CORL23 cells; [1]): 1 µM
- IC50 (NCI-H2087 cells; [1]): 1 µM
- IC50 (SW900 cells; [1]): 1 µM

Structure (SMILES): O=c1[nH]cc(F)c(=O)[nH]1 [Compound 5-FU, 5-fluorouracil]
- IC50 (MIA PaCa-2 cells; Homo sapiens, MIA PaCa-2, MIA-PaCa2, PAN, read-out: IC50 in 3D-TGA, agent alone): 1 µM
- IC50 (AsPC-1 cells): 1 µM
- IC50 (CFPAC-1 cells; Homo sapiens): 1 µM
- IC50 (Capan-1 cells; Homo sapiens): 1 µM
- IC50 (Capan-2 cells; Homo sapiens): 1 µM
- IC50 (HPAC cells; Homo sapiens): 1 µM
- IC50 (HPAF-II cells; Homo sapiens): 1 µM
- IC50 (PANC-1 cells; Homo sapiens): 1 µM
- IC50 (PSN-1 cells; Homo sapiens, PSN1): 1 µM
- IC50 (Panc 10.05 cells; Homo sapiens, Panc1005): 1 µM
- IC50 (PA-TU-8988S cells): 1 µM
- IC50 (Panc 03.27 cells): 1 µM

Structure (SMILES): C[C@@H](Oc1cc(-c2cnn(C3CCNCC3)c2)cnc1N)c1c(Cl)ccc(F)c1Cl [Crizotinib, crizotinib]
- IC50 (CORL23 cells; [2]): 1 µM
- IC50 (NCI-H2087 cells; [2]): 1 µM
- IC50 (SW900 cells; [2]): 1 µM

Structure (SMILES): Nc1ccn([C@@H]2O[C@H](CO)[C@@H](O)C2(F)F)c(=O)n1 [Gemcitabine, gemcitabine]
- IC50 (CL-40 cells; Homo sapiens): < 0.05 µM
- IC50 (HT-29 cells; Homo sapiens, HT-29, read-out: IC50 in 3D-TGA, agent alone): < 0.05 µM
- IC50 (LS1034 cells; Homo sapiens, LS-1034): 0.5 to 1 µM
- IC50 (RCM-1 cells; Homo sapiens, RCM-1, read-out: IC50 in 3D-TGA, agent alone): 0.5 to 1 µM
- IC50 (SNU-1197 cells; Homo sapiens): 0.1 to 0.5 µM
- IC50 (SW626 cells; Homo sapiens, SW626, read-out: IC50 in 3D-TGA, agent alone): 0.1 to 0.5 µM
- ORR (pancreatic cancer): 7%

Structure (SMILES): C=CC(=O)Nc1cc(Nc2nccc(-c3cn(C)c4ccccc34)n2)c(OC)cc1N(C)CCN(C)C [Osimertinib, osimertinib]
- IC50 (MIA PaCa-2 cells; Homo sapiens, read-out: IC50 in 3D-TGA Osimertinib, MIA PACA-2, PAN, agent alone): 1 µM
- IC50 (NCI-H508 cells): 1 µM
- IC50 (SK-CO-1 cells): 1 µM
- IC50 (LS411N cells): 1 µM
- IC50 (NCI-H358 cells; Homo sapiens, read-out: IC50 in 3D-TGA Osimertinib, agent alone): 1 µM
- IC50 (NCI-H1792 cells): 1 µM
- IC50 (NCI-H820 cells): 1 µM
- IC50 (NCI-H1650 cells): 1 µM
- IC50 (NCI-H2172 cells): 1 µM
- IC50 (HCC827 cells): 0.05 µM

Structure (SMILES): O=C1[O][Pt]2([NH][C@@H]3CCCC[C@H]3[NH]2)[O]C1=O [Oxaliplatin, oxaliplatin]
- IC50 (MIA PaCa-2 cells; [3]): 1 µM
- IC50 (A549 cells): 1 µM
- IC50 (CFPAC-1 cells): 1 µM
- IC50 (CL-40 cells; CL-40, COL, KRAS G12D): 0.1 to 0.5 µM
- IC50 (Calu-6 cells): 1 µM
- IC50 (Capan-1 cells): 0.1 to 0.5 µM
- IC50 (Capan-2 cells): 1 µM
- IC50 (HPAC cells): 1 µM
- IC50 (HPAF-II cells): 1 µM
- IC50 (HT-29 cells; [4]): 1 µM
- IC50 (LS1034 cells): 1 µM
- IC50 (PA-TU-8988T cells): 1 µM
- IC50 (PANC-1 cells): 1 µM
- IC50 (PSN-1 cells): 1 µM
- IC50 (Panc 10.05 cells): 1 µM
- IC50 (RCM-1 cells; [5]): 0.5 to 1 µM
- IC50 (SNU-1197 cells; SNU-1197, COL, KRAS G12D): 1 µM
- IC50 (SW626 cells; [6]): 1 µM
- IC50 (NCI-H358 cells; read-out: IC50 in 3D-TGA, agent alone): 1 µM

Structure (SMILES): CCc1c2c(nc3ccc(O)cc13)-c1cc3c(c(=O)n1C2)COC(=O)[C@]3(O)CC [SN-38]
- IC50 (MIA PaCa-2 cells; [3]): < 0.05 µM
- IC50 (CFPAC-1 cells): < 0.05 µM
- IC50 (CL-40 cells; CL-40, COL, KRAS G12D): < 0.05 µM
- IC50 (Capan-1 cells): < 0.05 µM
- IC50 (Capan-2 cells): < 0.05 µM
- IC50 (HPAC cells): < 0.05 µM
- IC50 (HPAF-II cells): < 0.05 µM
- IC50 (HT-29 cells; [4]): < 0.05 µM
- IC50 (LS1034 cells): < 0.05 µM
- IC50 (PA-TU-8988T cells): < 0.05 µM
- IC50 (PANC-1 cells): < 0.05 µM
- IC50 (Panc 10.05 cells): < 0.05 µM
- IC50 (RCM-1 cells; [5]): < 0.05 µM
- IC50 (SNU-1197 cells; SNU-1197, COL, KRAS G12D): < 0.05 µM
- IC50 (SW626 cells; [6]): < 0.05 µM
